Results published in patent US20080114066A1, “Synergistic Effects Of Docosahexaenoic Acid (DHA) And Carotenoid Absorption Of Cognitive Function” (Trustees of Tufts College, priority 2005, published 2008).

How the values were obtained:
macular pigment = experiment: Macular pigment optical density (MPOD), psychophysical method; type: in vivo, human; conditions: for Mean increase in total MPOD (change from baseline): 4 months of supplementation, area under the curve of 5 loci, mean ± se
Protocol: (§1) Women were randomly assigned to one of four groups: Control (n=10), DHA (n=14, DHA 800 mg/d), lutein (n=12, lutein 12 mg/d), and lutein+DHA (n=14, lutein 12 mg/d; DHA 800 mg/d) (C, D, L, and LD, respectively). The supplement type was randomized. Subjects visited the Jean Mayer USDA Human Nutrition Research Center on Aging at Tufts University on days that supplements were distributed and blood obtained (0 mo-baseline, 2 mo, and 4 mo). Subjects were instructed to take the supplement with a nutritional energy drink (8 oz., Boost®, Mead Johnson Nutritionals) but were otherwise asked to not alter their diets. The diet of each subject was monitored with food frequency questionnaires (Block G, et al., A data-based approach to diet questionnaire design and testing. Am J Epidemiol, 1986. 24: p. 453-469) completed at baseline, 2 months and 4 months to be sure that there were no confounding changes in dietary intake. All subjects completed at least two sets of cognitive and mood self-report tests, at the beginning of the study, then at the end of the study, after four months of supplementation, at the Schepens Eye Research Institute. Compliance was by monitored by interview, compliance calendars and capsule count. Both the subjects and the experimenter were masked to the experimental groups. Blood samples were collected at baseline, 2 months and 4 months, and serum was separated from red blood cells (800×g, 10 minutes). Aliquots of serum are stored at −70° C. until analyzed. At baseline and 2 months, a two month supply of placebo supplements, DHA (800 mg/d, DHASCO, Martek Biological Sciences), lutein (12 mg/d plus 0.5 mg zeaxanthin, Kemin Foods), or lutein+DHA (12 mg/d and 800 mg/d, respectively and nutritional energy drink was provided. At baseline and 4 months, subjects visited the Schepens Eye Research Institute (Boston, Mass.) for testing of MP optical density (MPOD) and an ophthalmic exam. There were two visits at each time point.
The method of assessing MPOD involves a three-channel Maxwellian view optical system and used a psycho physical method described by Hammond et al. (Hammond B. R., et al., Vision Res, 1996. 36: p. 2001-2012). […] MPOD was measured in two baseline sessions on separate days and in two sessions on separate days at the end of 4 months of supplementation.
Differences between cognitive and mood scores at baseline and after supplementation were tested by Student's t test for each treatment group. In the case of those variables where a significant change was found from baseline to end of study, correlations were calculated between age, education, serum levels of DHA and lutein, and test scores, for those test scores where the distribution was normal or near-normal. […]

[1] = tested on: non-smoking women (60-80 years); experiment: Stroop Test (computerized); type: in vivo, human; conditions: group mean; for Stroop Test Total RT, Interference (NC-C): subtask 4 minus subtask 3
Excerpt: (§2) Subjects: Fifty non-smoking women (60-80 years) were recruited from the general population for a 4 month supplementation study. All subjects underwent a screening examination that includes a medical history, a physical examination, and a routine blood clinical chemistry profile. Volunteers with any history or biochemical evidence of lactose intolerance, liver, kidney, or pancreatic disease, anemia, active bowel disease or resection, insulin-dependent diabetes, easy bruising or bleeding, bleeding disorders, hyperglyceridemia, hyperlipidproteinemia, or alcoholism were excluded from the study. Moreover, individuals taking mineral oil or medications suspected of interfering with fat-soluble vitamin absorption were excluded. Subjects using steroids or non-steroid anti-inflammatory drugs, or antihistamine drugs were excluded. […] Subjects were excluded if they have taken any nutrient supplement for 2 months or more before admission into the study or carotene supplements 6 months or more before the study. Smoking was not permitted during the course of the study.
as §1
(§3) Supplementation Protocol. Dietary supplements in capsule form were Lutein (12 mg/day) (Kemin Foods) and Docosahexaenoic Acid (DHASCO) (800 mg/day) (Martek Biological Sciences). Participants in each of the four supplementation groups were instructed to drink one can of a nutritional supplement daily (Boost Plus) (Mead Johnson) when taking their capsules. Subjects ingested their dietary supplements daily for a period of 4 months. Both the subjects and the experimenter were masked to the experimental groups.
(§4) Tests and Measurements. The battery of cognitive tests included tests of memory and processing speed or attention and a measure of self-reported mood. […] Early cognitive markers of the incidence of dementia and mortality: A longitudinal population-based study of the oldest old. International Journal of Geriatric Psychiatry, 12, 53-59; Payton, M., Riggs, K. M., Spiro III, A., Weiss, S. T. & Hu, H. (1998). […]

[2] = tested on: non-smoking women (60-80 years); experiment: MIR (Memory in Reality) apartment test; type: in vivo, human; conditions: group mean
Excerpt: as §2, §1, §3, §4

[3] = background statement; cited from earlier work
[4] = Serum carotenoids (lutein, zeaxanthin) by HPLC; type: in vivo, human; conditions: after 2 and 4 months of supplementation
Protocol: (§5) Women were randomly assigned to one of four groups: Control (n=10), DHA (n=14, DHA 800 mg/d), lutein (n=12, lutein 12 mg/d), and lutein+DHA (n=14, lutein 12 mg/d; DHA 800 mg/d) (C, D, L, and LD, respectively). The supplement type was randomized. Subjects visited the Jean Mayer USDA Human Nutrition Research Center on Aging at Tufts University on days that supplements were distributed and blood obtained (0 mo-baseline, 2 mo, and 4 mo). Subjects were instructed to take the supplement with a nutritional energy drink (8 oz., Boost®, Mead Johnson Nutritionals) but were otherwise asked to not alter their diets. The diet of each subject was monitored with food frequency questionnaires (Block G, et al., A data-based approach to diet questionnaire design and testing. Am J Epidemiol, 1986. 24: p. 453-469) completed at baseline, 2 months and 4 months to be sure that there were no confounding changes in dietary intake. […] Compliance was by monitored by interview, compliance calendars and capsule count. […] Aliquots of serum are stored at −70° C. until analyzed. […]
(§6) Serum carotenoids were extracted and analyzed by HPLC using the method described by Yeum et al. (Yeum, K. J., et al., Am J Clin Nutr, 1996. 64(4): p. 594-602.). […]
(§7) Results are expressed as mean ±SE. […]

[5] = Serum DHA by gas-liquid chromatography; type: in vivo, human; conditions: after 2 and 4 months of supplementation
Protocol: as §5, §6, §7

[6] = Baseline, before supplementation
[7] = Final, after 4 months of supplementation

Structure (SMILES): CC/C=C\C/C=C\C/C=C\C/C=C\C/C=C\C/C=C\CCC(=O)O [DHA, cis-4,7,10,13,16,19-docosahexaenoic acid]
- Retinal loci with significant increase in MPOD (macular pigment; 4 month change from baseline, loci 0.4°, 1.5°, 3°, 5°): 0.4°
- Mean increase in total MPOD (change from baseline) (macular pigment): 0.037±0.068 OD
- Stroop Test Mean RT, Name Colors [1, 6]: 838 ms
- Stroop Test Mean RT, Name Colors-Words [1, 6]: 1269 ms
- Stroop Test Mean RT, Read Words-Black [1, 6]: 879 ms
- Stroop Test Mean RT, Read Words-Color [1, 6]: 715 ms
- Stroop Test Total RT, Interference (NC-C) [1, 6]: 21.5 s
- Stroop Test Mean RT, Name Colors [1, 7]: 884 ms
- Stroop Test Mean RT, Name Colors-Words [1, 7]: 1277 ms
- Stroop Test Mean RT, Read Words-Black [1, 7]: 748 ms
- Stroop Test Mean RT, Read Words-Color [1, 7]: 727 ms
- Stroop Test Total RT, Interference (NC-C) [1, 7]: 19.7 s
- MIR Apartment Test Delayed Recall (max. 10) [2, 6]: 9.4
- MIR Apartment Test Location Recall (max. 10) [2, 6]: 9.9
- MIR Apartment Test Delayed Recall (max. 10) [2, 7]: 9.4
- MIR Apartment Test Location Recall (max. 10) [2, 7]: 10.0

Structure (SMILES): CC1=C[C@H](O)CC(C)(C)[C@H]1/C=C/C(C)=C/C=C/C(C)=C/C=C/C=C(C)/C=C/C=C(C)/C=C/C1=C(C)C[C@@H](O)CC1(C)C [Lutein, lutein]
- Share transported in blood on HDL [3]: about 53%
- Share transported in blood on LDL [3]: about 31%
- Share transported in blood on VLDL [3]: about 16%
- Serum concentration of lutein, change from baseline [4]: significantly increased
- Subjects without increase in MPOD (non responders) (macular pigment; 4 months of lutein supplementation): Two of 14
- Mean increase in total MPOD (change from baseline) (macular pigment): 0.370±0.140 OD
- Stroop Test Mean RT, Name Colors [1, 6]: 1008 ms
- Stroop Test Mean RT, Name Colors-Words [1, 6]: 1492 ms
- Stroop Test Mean RT, Read Words-Black [1, 6]: 844 ms
- Stroop Test Mean RT, Read Words-Color [1, 6]: 753 ms
- Stroop Test Total RT, Interference (NC-C) [1, 6]: 24.2 s
- Stroop Test Mean RT, Name Colors [1, 7]: 1014 ms
- Stroop Test Mean RT, Name Colors-Words [1, 7]: 1462 ms
- Stroop Test Mean RT, Read Words-Black [1, 7]: 945 ms
- Stroop Test Mean RT, Read Words-Color [1, 7]: 883 ms
- Stroop Test Total RT, Interference (NC-C) [1, 7]: 22.4 s
- Serum concentration of DHA, change from baseline [5]: No significant changes
- MIR Apartment Test Delayed Recall (max. 10) [2, 6]: 8.3
- MIR Apartment Test Location Recall (max. 10) [2, 6]: 9.5
- MIR Apartment Test Delayed Recall (max. 10) [2, 7]: 8.6
- MIR Apartment Test Location Recall (max. 10) [2, 7]: 9.5
